Test [1] relates to tetrabenazine-induced depression in mice. Put plainly: Antidepressant activity (inhibition of tetrabenazine induced ptosis / tetrabenazine-induced depression). The test is classed as in vivo. To be noted: for ED50: Mus musculus. The protocol: (§1) The antidepressant and analgesic activities of various spiro compounds having the formula [drawing 32] where X is hydrogen, chlorine or bromine and m is 1 or 2, taken as representative of a lower class of compounds having the formula I are presented in Table 1. The data presented therein were determined in accordance with the above described procedures.
1. Antidepressant activity (as measured by inhibition of
tetrabenazine induced ptosis).
3. Anti-depressant activity (as measured by inhibition
tetrabenazine induced ptosis)

Test [2] deals with phenylquinone writhing in mice. Put plainly: Analgesic activity (phenylquinone writhing test). To be noted: for ED50: Mus musculus, sc, Table 1 part 2, estimated by computer linear regression analysis; for % Inhibition (analgesic activities, phenylquinone writhing test): 20 mg/kg, subcutaneously (sc), Table 1 part 4. The test is classed as in vivo, male, CD-1 mice. The protocol:
This produces a characteristic "writhe" which is defined as an inward rotation of one or more feet with twisting and turning of the trunk, drawing in of the abdominal wall, lordosis and arching of the back.
A total of 28 male, CD-1 mice (18 to 30 grams) are employed for a time response. Animals receive food and water ad libitum. Drugs to be tested are prepared with distilled water, and if insoluble, one drop of a suitable surfactant is added.
Twenty animals (5/group) are administered the drug subcutaneously (sc) 15, 30, 45 and 60 minutes prior to phenylquinone injection. Control animals (2/group) receive an equal amount of vehicle. After the administration of phenylquinone, the mice are placed separately into one-liter beakers and 5 minutes are allowed to elapse. The mice are then observed for a period of 10 minutes and the number of writhes are recorded for each animal. The formula for computing percent inhibition is: [formula]
The time period with the greatest percent of inhibition is considered the peak time.
A dose range is run in the same fashion as a time response except ten animals per group are tested at the peak time of drug activity. Fifty animals, four drug groups, and a vehicle control are employed. Animals are dosed and tested in a randomized manner. An estimated ED50 is calculated by a computer linear regression analysis.
as §1
2. Analgesic activities (as measured in the
phenylquinone writhing test).

Where [3] appears, read: po, Table 1 part 1, read-out: ED50 (antidepressant activity, inhibition of tetrabenazine induced ptosis).

Where a name gives a salt, the structure may show the parent alone. Read-outs that look alike come from different tables or passages of the source.

The source of these data is US4517311A, “2'-Substituted-spiro[benzofuran-2(3H),1'-cycloalkanes] and their analgesic and anti-depressant compositions” (Hoechst-Roussel Pharmaceuticals Inc., priority 1982, dated 1985).

Turning to `CN(C)C[C@@H]1CCCC[C@@]12Cc1cc(Br)ccc1O2` (relative stereo) [5-bromo Me cis 1, (1'β,2'β)-2'-Dimethylaminomethylspiro[5-bromobenzofuran-2(3H),1'-cyclohexane]Hydrochloride], in test [1] (setting [3]), the median effective dose (ED50) worked out at 4.73 mg/kg. In the case of `CCN(CC)C[C@@H]1CCCC[C@@]12Cc1cc(Cl)ccc1O2` (relative stereo) [5-chloro Et cis 1, (1'β,2'β)-2'-Diethylaminomethylspiro[5-chlorobenzofuran-2(3H),1'-cyclohexane]Hydrochloride], in test [1] (setting [3]), the ED50 was 4.73 mg/kg. Turning to `CN(C)C[C@@H]1CCCC[C@@]12Cc1ccccc1O2` (relative stereo) [H Me cis 1, (1'β,2'β)-2'-Dimethylaminomethylspiro[benzofuran-2(3H),1'-cyclohexane]Hydrochloride], in test [2], the ED50 was 5.98 mg/kg. Turning to `CN(C)C[C@@H]1CCCC[C@]12Cc1ccccc1O2` (relative stereo) [H Me trans 1, (1'β,2'β)-2'-Dimethylaminomethylspiro[benzofuran-2(3H),1'-cyclohexane]Hydrochloride], the median effective dose (ED50) was 2.9 mg/kg in test [2] and 3 mg/kg in test [1] (setting [3]). With `CN(C)C[C@@H]1CCC[C@@]12Cc1ccccc1O2` (relative stereo) [(1'β,2'β)-2'-dimethylaminomethylspiro[benzofuran-2(3H),1'-cyclopentane]hydrochloride], in test [2], the “% Inhibition (analgesic activities, phenylquinone writhing test)” value was 37%. The “% Inhibition (anti-depressant activity, inhibition of tetrabenazine induced ptosis)” value in test [1] (20 mg/kg intraperitoneal, Table 1 part 3) is 53%. As for `CN(C)C[C@@H]1CCC[C@@]12Cc1cc(Br)ccc1O2` (relative stereo) [(1'β,2'β)-2'-dimethylaminomethylspiro[5-bromobenzofuran-2(3H),1'-cyclopentane]hydrochloride], the “% Inhibition (analgesic activities, phenylquinone writhing test)” value in test [2] is given as 53%. The ED50 in test [1] ((po) [orally], Table 1 part 3, read-out: 50% Inhibition (ED50), anti-depressant activity, inhibition of tetrabenazine induced ptosis) came out at 17.3 mg/kg. Take `CN(C)C[C@@H]1CCC[C@@]12Cc1cc(Cl)ccc1O2` (relative stereo) [(1'β,2'β)-2'-dimethylaminomethylspiro[5-chlorobenzofuran-2(3H),1'-cyclopentane]hydrochloride]: in test [2], the “% Inhibition (analgesic activities, phenylquinone writhing test)” value stood at 40%.

On to `CN(C)C[C@@H]1CCCC[C@@]12Cc1cc(Cl)c(Cl)cc1O2` (relative stereo) [5,6-dichloro Me cis 1, (1'β,2'β)-2'-Dimethylaminomethylspiro[5,6-dichlorobenzofuran-2(3H),1'-cyclohexane]Hydrochloride], for which the ED50 in test [1] (setting [3]) was found to be 3.46 mg/kg. With `CN(C)C[C@@H]1CCCC[C@]12Cc1cc(Cl)ccc1O2` (relative stereo) [5-chloro Me trans 1, (1'α,2'β)-2'-Dimethylaminomethylspiro[5-chlorobenzofuran-2(3H),1'-cyclohexane]Hydrochloride], in test [1] (setting [3]), the ED50 worked out at 1.39 mg/kg. With `CN(C)C[C@@H]1CCCC[C@]12Cc1c(Cl)cccc1O2` (relative stereo) [4-chloro Me trans 1, (1'α2'β)-2'-Dimethylaminomethylspiro[4-chlorobenzofuran-2(3H),1'-cyclohexane]Hydrochloride], the ED50 in test [1] (setting [3]) is 5.7 mg/kg. For `CN(C)C[C@@H]1CCCC[C@]12Cc1ccc(Cl)cc1O2` (relative stereo) [6-chloro Me trans 1, (1'α,1'β)-2'-Dimethylaminomethylspiro[6-chlorobenzofuran-2(3H),1'-cyclohexane]Hydrochloride], the ED50 in test [1] (setting [3]) turned out to be 0.42 mg/kg. With `CN(C)C[C@@H]1CCCC[C@@]12Cc1cc(Cl)ccc1O2` (relative stereo) [5-chloro Me cis 1, (1'β,2'β)-2'-Dimethylaminomethylspiro[5-chlorobenzofuran-2(3H),1'-cyclohexane]Hydrochloride], the ED50 in test [2] is 4.96 mg/kg; in test [1] (setting [3]), 1.5 mg/kg.

Usually ED50 stands for the midpoint of the dose-response relation.
